Data set [1] can be described thus: In-vitro deposition on skin substitute after rinse-off (GC of extract). The note with it: for In-vitro deposition of Isosorbide monooleate on the skin substitute per area: after rinse with water. On the procedure:
(§1) For measuring the deposition of isosorbide monooleate on a substrate a formulation containing isosorbide monooleate was applied to this substrate. Then, the treated area was rinsed with a defined amount of water and extracted with an organic solvent in order to determine the amount of isosorbide monooleate that remained on the surface after the rinse cycle. The extract was analyzed by gas chromatography (GC) and the amount of isosorbide monooleate deposited on the surface was calculated. The measurements were carried out as described in the experimental section of WO 2013/007473.
(§2) As substrate the human skin (forearm) of probands (in-vivo deposition) as well as a skin substitute (collagen layer) (in-vitro deposition) was used. The rinse-cycle (dilution with water) imitated the process of having a shower.
(§3) The following formulations were used for the deposition measurements (in-vitro as well as in-vivo).

Data set [2] is described as follows: In-vivo deposition on human skin after rinse-off (GC of extract). The procedure: as §1, §2, §3

With isosorbide monooleate, the “In-vitro deposition of Isosorbide monooleate on the skin substitute per area” value in data set [1] (0.5 % by weight isosorbide monooleate in the formulation) was determined as 3.7 μg/cm^2; in data set [1] (1 % by weight isosorbide monooleate in the formulation), 7.3 μg/cm^2; in data set [1] (1.5 % by weight isosorbide monooleate in the formulation) it was 8.6 μg/cm^2; in data set [1] (2 % by weight isosorbide monooleate in the formulation), 15.8 μg/cm^2. In addition, the “Concentration dependency of deposition on the skin/skin substitute” value in data set [1] (formulations with 0.5 to 2 % by weight isosorbide monooleate) is given as “The higher the amount of isosorbide monooleate in the formulation the higher the deposition rate”. Also, the “In-vivo Deposition of isosorbide monooleate on the skin per area” value in data set [2] (1 % by weight isosorbide monooleate in the formulation, human forearm skin, after rinse-off) is reported as 0.7 μg/cm^2. Also, in data set [2] (formulation with 1% by weight isosorbide monooleate), the “Remaining on the skin after rinse-off (in words)” value is recorded as “remained in small amounts on the skin after rinse-off”.

For the origin of these results see patent US20170157012A1, “A Use of Isosorbide Monooleate” (BASF SE, priority 2014, published 2017).
